Results published in ChEMBL document CHEMBL1201862, “PubChem BioAssay data set” (2004).
Activity calls are given as the source filed them.

Tests used:
Format in all cases: functional
[1] = target: T1, Short transient receptor potential channel 4 (Mus musculus, UniProt Q9QUQ5); assay: mouse TRPC4 channel activators, dose response, cell-based, HEK293 TRPC4/mu-opioid, Fluo-4 calcium (AID 434937)
T1 sequence (Q9QUQ5 whole entry): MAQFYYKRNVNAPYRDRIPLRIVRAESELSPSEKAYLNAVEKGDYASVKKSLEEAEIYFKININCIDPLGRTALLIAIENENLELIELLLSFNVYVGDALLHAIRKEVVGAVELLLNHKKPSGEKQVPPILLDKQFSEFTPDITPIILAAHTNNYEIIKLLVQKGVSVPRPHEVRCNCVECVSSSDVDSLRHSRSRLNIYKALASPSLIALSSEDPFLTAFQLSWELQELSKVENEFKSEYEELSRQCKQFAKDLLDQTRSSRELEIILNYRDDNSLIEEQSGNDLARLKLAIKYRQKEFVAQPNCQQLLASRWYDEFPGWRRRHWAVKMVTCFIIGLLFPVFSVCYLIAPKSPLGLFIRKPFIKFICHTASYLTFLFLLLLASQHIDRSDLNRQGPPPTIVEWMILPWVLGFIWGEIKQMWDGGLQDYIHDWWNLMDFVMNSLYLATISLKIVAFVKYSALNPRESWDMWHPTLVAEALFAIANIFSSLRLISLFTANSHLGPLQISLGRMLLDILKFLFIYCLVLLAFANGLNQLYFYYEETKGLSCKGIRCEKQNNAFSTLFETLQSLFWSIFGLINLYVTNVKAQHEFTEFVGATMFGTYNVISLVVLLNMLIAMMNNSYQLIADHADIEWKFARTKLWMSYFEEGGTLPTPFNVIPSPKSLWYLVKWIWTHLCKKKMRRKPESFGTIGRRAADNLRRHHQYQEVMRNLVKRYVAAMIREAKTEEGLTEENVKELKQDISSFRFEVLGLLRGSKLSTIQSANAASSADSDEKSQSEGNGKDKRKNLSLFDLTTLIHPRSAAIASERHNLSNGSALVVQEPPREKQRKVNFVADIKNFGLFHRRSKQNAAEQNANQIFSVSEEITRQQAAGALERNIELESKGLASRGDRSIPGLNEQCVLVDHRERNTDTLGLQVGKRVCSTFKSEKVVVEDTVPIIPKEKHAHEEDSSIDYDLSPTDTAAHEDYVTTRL

Coagulation factor XII = target: T2, Coagulation factor XII (Homo sapiens, UniProt P00748);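 note: activated factor XIIa alpha cleaving a fluorogenic AMC peptide substrate; inhibitor potency from loss of enzyme activity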
T2 sequence (P00748 whole entry): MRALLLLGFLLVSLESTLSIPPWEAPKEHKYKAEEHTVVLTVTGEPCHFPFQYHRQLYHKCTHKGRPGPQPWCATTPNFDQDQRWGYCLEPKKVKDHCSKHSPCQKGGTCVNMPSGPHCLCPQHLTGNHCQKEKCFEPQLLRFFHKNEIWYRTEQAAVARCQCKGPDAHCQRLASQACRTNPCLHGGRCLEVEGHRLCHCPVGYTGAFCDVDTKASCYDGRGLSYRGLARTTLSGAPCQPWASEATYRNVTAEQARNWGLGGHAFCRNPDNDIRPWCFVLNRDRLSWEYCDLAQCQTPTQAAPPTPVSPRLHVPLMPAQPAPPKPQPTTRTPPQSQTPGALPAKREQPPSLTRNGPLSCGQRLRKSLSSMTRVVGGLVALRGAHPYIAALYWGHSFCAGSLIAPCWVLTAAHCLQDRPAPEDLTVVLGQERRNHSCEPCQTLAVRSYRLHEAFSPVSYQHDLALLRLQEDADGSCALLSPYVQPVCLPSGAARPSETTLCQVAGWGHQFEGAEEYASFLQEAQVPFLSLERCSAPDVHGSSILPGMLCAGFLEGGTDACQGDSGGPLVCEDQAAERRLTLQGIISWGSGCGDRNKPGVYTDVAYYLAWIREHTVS

[2] = target: T3, Kappa-type opioid receptor (Homo sapiens, UniProt P41145); assay: SAR analysis of small molecule antagonists of the kappa opioid receptor via a luminescent beta-arrestin assay - Set 4. [Related pubchem assays (depositor defined):AID1777, AID1778, AID1785, AID1786, AID1966, AID2133, AID2136, AID2285]
[3] = target: T3, Kappa-type opioid receptor; assay: SAR analysis of small molecule antagonists of the kappa opioid receptor via a luminescent beta-arrestin assay - Set 5. [Related pubchem assays (depositor defined):AID1778, AID1785]

T3 sequence (P41145 whole entry): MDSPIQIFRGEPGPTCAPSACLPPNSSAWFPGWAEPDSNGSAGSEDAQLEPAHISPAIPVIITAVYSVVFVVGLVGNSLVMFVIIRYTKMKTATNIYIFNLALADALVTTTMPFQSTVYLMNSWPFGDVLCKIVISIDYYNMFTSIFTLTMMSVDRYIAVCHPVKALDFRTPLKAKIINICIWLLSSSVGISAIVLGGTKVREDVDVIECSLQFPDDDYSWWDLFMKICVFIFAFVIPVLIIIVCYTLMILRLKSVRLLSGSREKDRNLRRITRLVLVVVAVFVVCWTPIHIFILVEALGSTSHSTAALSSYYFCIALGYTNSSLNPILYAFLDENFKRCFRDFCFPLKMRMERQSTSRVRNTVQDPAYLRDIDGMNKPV

Compound | EC50 [1] | IC50 (Coagulation factor XII) | also measured
O=C(Cn1c(-c2ccccc2)c[n+]2ccsc12)c1ccc(Br)cc1 | 0.668 µM (active) | – | –
CCCN(CCC)CCCNC(=O)CNC(=O)c1nn(-c2ccc(OC)cc2)c(=O)c2ccccc12 | 3.76 µM (active) | – | –
Cc1c(C(=O)C2=C(O)C(=O)N(CCN3CCOCC3)C2c2cccs2)cnn1-c1ccccc1 (stereo unspecified) | – | > 50 µM (inactive) | –
COc1cc(NC(=O)c2cc3nc(C4CC4)cc(C(F)(F)F)n3n2)c(OC)cc1Cl | – | > 50 µM (inactive) | –
CC(C)N(CCNC(=O)c1ccc(CNS(=O)(=O)Cc2ccccc2)cc1)Cc1ccccc1 | – | – | IC50 [2]: 10.3 µM (inactive); IC50 [3]: 3.5 µM (active)
